Non-standard residues stand in square brackets, D forms with d. Residues, ends and D or L forms follow the SMILES beside them. *: point of attachment. pY = N[C@@H](Cc1ccc(OP(=O)(O)O)cc1)C(=O)O; NBD = O=[N+]([O-])c1ccc(*)c2nonc12; βAla = NCCC(=O)O
Assays:
[1] = Enzymatic self-assembly in vitro, nanostructures by TEM; assay type: physicochemical
Description: TEM Sample Preparation: After placing 5 μL samples on 400 mesh copper grids coated with continuous thick carbon film (˜35 nm) which is glowed discharged, we washed the grid with ddH2O and UA (uranyl acetate). The sample loaded grid was stained with the UA. The residual UA was removed by filter paper and then dried in air. TEM images were obtained with Morgagni 268 transmission electron microscope.
After obtaining all the precursors, their behaviors for EISA were evaluated in vitro using transmission electron microscopes (TEM) to examine the nanostructures formed before and after the ALP catalyzed dephosphorylation of precursors 5, 7, and 9. […] The critical micelle concentration (CMC) of 5 is 86.1 μM. […] The CMC of 6 is 8.1 μM. Unlike the case of 5, dephosphorylation of 7 or 9 at 400 μM by ALP (0.5 U/mL) produces nanofibers with the diameters of 6±2 nm or 9±2 nm, whose CMC is 87.4 μM or 25.8 μM, respectively.
A key requirement for selectively eliminating iPSCs by EISA is that the L-peptide nanoribbons only form on and in iPSCs, which overexpress ALP, but not on and in the differentiated cells that express normal level of ALP. That is, L-peptide nanoribbons should only rapidly form at high level of ALP, but not at normal level of ALP. […] Thus, after assessing the level of ALP expression in iPSCs, it should be possible to optimizing the initial concentration of a peptide and the time of dephosphorylation, to promote EISA that selectively targets iPSCs.

[2] = Cell viability of iPSCs (trypan blue); assay type: cell-based, human; details: human, human induced pluripotent stem cells (iPSC line A21), 2 hours
Description: (§1) Cell Culture: Human induced pluripotent stem cell line A21 was generated from human normal dermal fibroblasts by using the StemRNA™-NM Reprogramming kit (Stemgent, Cat #00-0076). hiPSCs were routinely cultured and passaged on 6-well plates coated with 0.25 μg/cm^2 iMatrix-511 (Recombinant Laminin-511) (ReproCell) with NutriStem XF/FFTM medium (Biological Industries). HS-5 cell line and HEK293 cell line were purchased from American Type Culture Collection (ATCC, USA). HS-5 cells were cultured in Dulbecco's Modified Eagle Medium (DMEM) supplemented with 10% fetal bovine serum (FBS), 100 U/mL penicillin and 100 μg/mL streptomycin. HEK293 cells were cultured in Minimal Essential Medium (MEM) supplemented with 10% fetal bovine serum (FBS), 100 U/mL penicillin and 100 μg/mL streptomycin. All cells were maintained at 37° C. in a humidified atmosphere of 5% CO2.
(§2) Cell Viability of iPSC's: iPSCs were plated in 6-well plates and incubated for 24 to 48 hours, then media were replaced with fresh one (2 ml) supplemented with PBS (control) 5 (200 μM, 300 μM, and 400 μM), 7 (400 μM) or 9 (400 μM), and incubated for 2 hours. Media were removed and cells were rinsed with PBS once, fresh normal cultural media were added and incubated for 30 min. All cells were collected and stained with trypan blue, live cells were counted using Cellometer Auto 2000 (Nexcelom Bioscience). Data were obtained by from three independent wells (n=3).

iPSCs = experiment: Cell viability of iPSCs (trypan blue); assay type: cell-based, human; details: 400 μM, 2 h
Description: as §1, §2

[3] = Cell viability of iPS-derived HPCs (trypan blue); assay type: cell-based, human; details: human, iPS-derived hematopoietic progenitor cells (HPCs), read-out: viability of the HPC cells
Description: (§3) Differentiation of Human iPSC to iPS-derived Hematopoietic Progenitor Cells (HPC's): iPSCs were differentiated into hematopoietic progenitor cells (HPCs) by using a 3D-bioreactor platform^1. HPCs released from iPSC-spheroids after 9-10 days' differentiation were collected and characterized. Hematopoietic lineage specific marker expression of harvested HPCs were analyzed by flow cytometry. About 97.6% of these HPCs were CD31+CD43+ double positive, but only about 13% are OCT4+, indicative of commitment to hematopoietic lineage. These iPS-derived HPCs were used for 5 (400 μM, 2 hr) cytotoxicity assay.
(§4) Cell Viability of iPS-derived HPC's: iPS-derived HPCs were plated in 12-well plates and incubated overnight, then media were replaced with fresh one (2 ml) supplemented with PBS (control) 5 (400 μM) incubated for 2 hours. All cells were collected and stained with trypan blue, live cells were counted using Cellometer Auto 2000 (Nexcelom Bioscience). Data were obtained by from three independent wells (n=3).

iPS-derived HPCs = experiment: Cell viability of iPS-derived HPCs (trypan blue); assay type: cell-based, human; details: 400 μM, 2 h
Description: as §3, §4

HEK293 cells = experiment: Cytotoxicity against HEK293 cells (MTT assay); assay type: cell-based; details: 400 μM, 2 h
Description: as §1
Cell Viability of Differentiated Cells: Cytotoxicity against HS-5 cells and HEK293 cells was determined by using MTT assay. […] The absorbance of each well at 595 nm was measured by a DTX880 Multimode Detector. The results were calculated as cell viability percentage relative to untreated cells. […]

[4] = Degradation in HS-5 cell lysate (LC-MS); details: 200 μM, 2 h of incubation

SMILES: CC(C)C[C@H](NC(=O)CCNc1ccc([N+](=O)[O-])c2nonc12)C(=O)N[C@@H](CC(C)C)C(=O)N[C@@H](CC(C)C)C(=O)N[C@@H](CC(C)C)C(=O)N[C@@H](Cc1ccc(OP(=O)(O)O)cc1)C(=O)O [compound 5, NBD-βA-LLLLpY] ({NBD-βAla}-LLLL[pY]-OH)
- diameters of nanoparticles ([1]; 200 μM, one-hour treatment by 0.1 U/mL ALP): 404±50 nm
- widths of nanoribbons ([1]; 400 μM, ALP 0.5 U/mL, 37° C., 24 h): 74±13 nm
- diameter of short nanofibers ([1]; 400 μM, PBS, before ALP): 9±2 nm
- viability at 2 h, 200 µM ([2]; 200 μM): 31.1 ± 3.2%
- viability at 2 h, 300 µM ([2]; 300 μM): 18.5 ± 1.5%
- viability at 2 h, 400 µM ([2]; 400 μM): 6.96 ± 1.71%
- cell death of iPSCs (FIG. 8A) (iPSCs): 93%
- viability at 2 h, 400 µM [3]: 96.8%
- cell survival of HPCs (FIG. 8B) (iPS-derived HPCs): 97%
- cytotoxicity towards HEK293 cells (HEK293 cells): innocuous
- stability of 5 in HS-5 lysate [4]: All of 5 disappears

— patent US20240294570A1, “ENZYMATICALLY FORMING INTRANUCLEAR PEPTIDE ASSEMBLIES FOR SELECTIVELY KILLING INDUCED PLURIPOTENT STEM CELLS” (BRANDEIS UNIVERSITY, priority 2021, published 2024)
